We go through 14 molecules from PMC4732513, “Efficient one-pot synthesis, molecular docking and in silico ADME prediction of bis-(4-hydroxycoumarin-3-yl) methane derivatives as antileishmanial agents” (EXCLI Journal, 2015).

≈ marks a conversion by molar mass, not a printed value. Where two headings read alike, the source gives them in different places.

This experiment has as its system L. donovani promastigotes (NHOM/IN/80/DD8). The experiment can be described thus: In vitro antileishmanial activity (modified MTT assay). The format is cell-based, Leishmania donovani. The following applies: for IC50: Leishmania donovani, read-out: IC50 (concentration that decreased cell growth by 50 %). The procedure:
The assay for in vitro antileishmanial activity on culture of L. donovani promastigotes (NHOM/IN/80/DD8) was carried out in 96-well tissue culture plates. The promastigotes culture was maintained at 22 ^οC in modified RPMI 1640 pH 7.4 (without phenol red) with 10 % FCS medium. Drug dilutions were prepared in DMSO and appropriate concentration of each drug was used in triplicate. Plates were incubated at 22 °C for 72 h and evaluated using modified MTT assay, where the conversion of 3-(4,5-dimethylthiazol-2-yl)-2,5-diphenyltetrazolium bromide (MTT) to formazan by mitochondrial enzymes served as an indicator of cell viability and the amount of formazan produced was directly proportional to the number of metabolically active cells. Accordingly, absorbance at 492 nm represented the number of live cells. The concentration that decreased cell growth by 50 % (IC50) was determined by graphic interpolation. Pentamidine and sodium stibogluconate were used as standard drugs (Dutta et al., 2005[11]).
The assay for in vitro antileishmanial activity was carried out on cultures of L. donovani promastigotes. The concentration that decreased cell growth by 50 % (IC50) was determined by graphic interpolation and data obtained depicted in Table 3(Tab. 3).

Where [1] appears, read: L. donovani promastigotes, 72 h at 22 °C, modified MTT, graphic interpolation.

For `O=c1oc2ccccc2c(O)c1C(c1ccccc1)c1c(O)c2ccccc2oc1=O` [3a, 3,3'-(Phenylmethylene)bis(4-hydroxy-2H-chromen-2-one)], under “72 h”, the IC50 came out at 155 µg/mL (≈ 376 µM).

For the molecule `O=c1oc2ccccc2c(O)c1C(c1ccc(Cl)cc1)c1c(O)c2ccccc2oc1=O` [3b, 3,3'-((4-Chlorophenyl)methylene)bis(4-hydroxy-2H-chromen-2-one)], where the note is “72 h”, the IC50 is 312 µg/mL (≈ 699 µM).

Regarding `O=c1oc2ccccc2c(O)c1C(c1c(Cl)cccc1Cl)c1c(O)c2ccccc2oc1=O` [3c, 3,3'-((2,6-Dichlorophenyl)methylene)bis(4-hydroxy-2H-chromen-2-one)], the IC50 (72 h) was 320 µg/mL (≈ 665 µM).

Regarding `O=c1oc2ccccc2c(O)c1C(c1ccc(F)cc1)c1c(O)c2ccccc2oc1=O` [3d, 3,3'-((4-Fluorophenyl)methylene)bis(4-hydroxy-2H-chromen-2-one)], the IC50 (72 h) stood at 295 µg/mL (≈ 685 µM). As for `COc1ccc(C(c2c(O)c3ccccc3oc2=O)c2c(O)c3ccccc3oc2=O)cc1` [3e, 3,3'-((4-Methoxyphenyl)methylene)bis(4-hydroxy-2H-chromen-2-one)], the IC50 (72 h) was 218 µg/mL (≈ 492 µM). Same read-out and setting: the value for `COc1ccc(C(c2c(O)c3ccccc3oc2=O)c2c(O)c3ccccc3oc2=O)cc1OC` [3f, 3,3'-((3,4-Dimethoxyphenyl)methylene)-bis(4-hydroxy-2H-chromen-2-one)] was 275 µg/mL (≈ 582 µM). As to `COc1ccc(C(c2c(O)c3ccccc3oc2=O)c2c(O)c3ccccc3oc2=O)c(OC)c1` [3g], under setting [1], the “IC50 (concentration that decreased cell growth by 50 %)” value was determined as 157.5 µg/mL (≈ 333 µM). On to `COc1ccc(OC)c(C(c2c(O)c3ccccc3oc2=O)c2c(O)c3ccccc3oc2=O)c1` [3h, 3,3'-((2,5-Dimethoxyphenyl)methylene)bis(4-hydroxy-2H-chromen-2-one)], for which, under “72 h”, the IC50 worked out at 198 µg/mL (≈ 418 µM). In the case of `COc1cc(C(c2c(O)c3ccccc3oc2=O)c2c(O)c3ccccc3oc2=O)cc(OC)c1OC` [3i, 3,3'-((3,4,5-Trimethoxyphenyl)methylene)bis(4-hydroxy-2H-chromen-2-one)], the IC50 (72 h) is 262 µg/mL (≈ 522 µM). On to `COc1cc(C(c2c(O)c3ccccc3oc2=O)c2c(O)c3ccccc3oc2=O)ccc1O` [3j, 3,3'-((4-Hydroxy-3-methoxyphenyl)methylene)bis(4-hydroxy-2H-chromen-2-one)], for which the IC50 (72 h) turned out to be 198 µg/mL (≈ 431 µM). Take `N#Cc1ccc(C(c2c(O)c3ccccc3oc2=O)c2c(O)c3ccccc3oc2=O)cc1` [3k, 3,3'-((4-Cyanophenyl)methylene)bis(4-hydroxy-2H-chromen-2-one)]: for the setting “72 h”, the IC50 amounted to 225 µg/mL (≈ 514 µM).

With `CN(C)c1ccc(C(c2c(O)c3ccccc3oc2=O)c2c(O)c3ccccc3oc2=O)cc1` [3l, 3,3'-((4-(Dimethylamino)phenyl)methylene)bis(4-hydroxy-2H-chromen-2-one)], under “Figure 3”, the “Effect on L. donovani promastigotes (viability, morphology)” value is on record as “organisms lost its viability as seen by irregular shape morphology”. For the same molecule, the IC50 (72 h) turned out to be 150 µg/mL (≈ 329 µM). Turning to `N=C(N)c1ccc(OCCCCCOc2ccc(C(=N)N)cc2)cc1` [Pentamidine, pentamidine, reference compound], the IC50 under setting [1] was 5.5 µg/mL (≈ 16.2 µM). On to `O.O.O.O.O.O.O.O.O.O=C([O-])[C@@H]1[O][Sb](=[O])([O][Sb]2(=[O])[O][C@H]([C@H](O)CO)[C@H](O)[C@H](C(=O)[O-])[O]2)[O][C@H]([C@H](O)CO)[C@@H]1O.[Na+].[Na+].[Na+]` (stereo partly drawn) [Sodium stibogluconate, sodium stibogluconate, reference compound], for which the “IC50 (concentration that decreased cell growth by 50 %)” value under setting [1] was 490 µg/mL.
